# Test results: patent publication US20130072505A1, “6,9-Disubstituted Purine Derivatives and Their Use for Treating Skin” (priority 2006, published 2013)
# Legend:
# [1] = test system: human myeloid leukemia K-562; test: in vitro cytotoxic activity, Calcein AM microtiter assay; assay type: cell-based; conditions: K562, 72 hours, highest concentration 166.7 μM
# Experimental: (§1) In vitro cytotoxic activity of several of the 6,9-disubstituted purine derivatives of this invention was determined using a microtiter assay with Calcein AM and a panel of cell lines of different histogenetic and species origin; kinetin was also examined as a control. Because only metabolically active cells cleave Calcein AM (tetraacetoxymethyl ester of calcein), the intracellular concentration of calcein corresponds to the number of vital cells in the culture.
# (§2) The following cell lines were used: human osteosarcoma (HOS); breast carcinoma MCF-7; human myeloid leukemia K-562; and mouse fibroblasts NIH3T3. The cells were maintained in Nunc/Corning 80 cm^2 plastic tissue culture flasks and cultured in cell culture medium (DMEM with 5 g/l glucose, 2 mM glutamine, 100 U/ml penicillin, 100 μg/ml streptomycin, 10% fetal calf serum, and sodium bicarbonate).
# (§3) The cell suspensions were prepared and diluted according to the particular cell type and the expected target cell density (2.500-30.000 cells per well based on cell growth characteristics) were added by pipette (80 μl) into 96/well microtiter plates. Inoculates were allowed a pre-incubation period of 24 hours at 37° C. and 5% CO2 for stabilization. Four-fold dilutions of the intended test concentration were added at time zero in 20 μl aliquots to the microtiter plate wells. The test compounds were generally evaluated at six 4-fold dilutions. The highest well concentration used in the present study was 166.7 μM. All samples were examined in triplicates. Incubations of cells with the tested compounds was for 72 hours at 37° C., in 5% CO2 atmosphere and 100% humidity. At the end of the incubation period, Calcein AM was added to a final concentration of 1 μg/ml incubated for 1 hour. Fluorescence intensity (FI) was measured with a Labsystem FIA Reader Fluoroscan Ascent (UK). The cell survival (GI50) was calculated using the following equation: GI50=([…])/(mean FIcontrol well−mean FIblank)×100%. The GI50 value, the drug concentration lethal to 50% of the cells, was calculated from the obtained dose response curves.
# [2] = test system: human osteosarcoma (HOS); test: as above; assay type: cell-based; conditions: 72 hours, highest concentration 166.7 μM
# Experimental: as §1, §2, §3
# [3] = test system: mouse fibroblasts NIH3T3; test: as above; assay type: cell-based; conditions: NIH3T3, 72 hours, highest concentration 166.7 μM, read-out: GI50 NIH-3T3
# Experimental: as §1, §2, §3
# [4] = test system: breast carcinoma MCF-7; test: as above; assay type: cell-based; conditions: Homo sapiens, MCF7; 72 hours; highest concentration 166.7 μM
# Experimental: as §1, §2, §3
# [5] = test system: human subjects; test: Human Repeated Insult Patch Test; assay type: in vivo; conditions: test gel about 0.1 percent
# Experimental: Test gel (about 0.2 ml) containing about 0.1 percent 6-furfurylamino-9-(2-tetrahydropyranyl)purine was placed onto a 2 cm square occlusion patch was placed on each subjects back and remained for 24 hours. This procedure was repeated every Monday, Wednesday, and Friday until nine (9) applications had been made on the same area (induction phase). The area was examined before each new application. About 10-14 days after the ninth patch had been removed, a challenge patch (challenge phase) on a new area of the back and then examined 24 and 72 hours thereafter for reactivity. Skin responses were based on a six-point scale (0=no evidence of effect; +=barely perceptible; 1=mild; 2=moderate; 3=marked; and 4=severe).
# Fifty-two (52) subjects completed the induction and challenge phases (total of 10 applications per subject).
# [6] = test system: Salmonella typhimurium histidien auxotrophs TA98 and TA100; test: Ames Test; assay type: cell-based; conditions: 2.5 to 5000 μg/plate; presence and absence of rat liver S9
# Experimental: Tests were carried out using DMSO as solvent and dose levels of 6-furfurylamino-9-(2-tetrahydropyranyl)purine at 2.5, 5.0, 15, 50, 500, 1500, and 5000 μg/plate based upon standard protocol and procedures (Ames et al., Mutation Research, 31, 347-364 (1975); Maron et al., Mutation Research, 113, 173-215 (1983)).
compound,measurement,setting,value
c1coc(CNc2ncnc3c2ncn3C2CCCCO2)c1 (stereo not shown) [6-furfurylamino-9-(2-tetrahydropyranyl)purine],GI50,[1],> 167 µM
same,GI50,[2],> 167 µM
same,GI50,[3],> 167 µM
same,GI50,[4],> 167 µM
same,"skin responses, six-point scale (0=no evidence of effect; +=barely perceptible; 1=mild; 2=moderate; 3=marked; 4=severe)","[5]; challenge phase, at 24 hours, 52 subjects",only one subject had a barely perceptible rating (+)
same,induced allergic contact dermatitis or other irritation,[5]; induction and challenge phases,No evidence of induced allergic contact dermatitis or other irritation
same,mutagenic responses,[6],no positive mutagenic responses
